Columns and labels:
[1] = tested on: human cervical tumor cell line HeLa (ATCC CCL-2); assay: SAC-Formation - Nocodazole-Induced Assay; type: cell-based; settings: Homo sapiens, HeLa, 24 h, HeLa cells, nocodazole 0.1 μg/ml together with test compound, decrease of mitotic cells (phospho-histone H3 Ser10)
Method in brief: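 Loss of phospho-histone H3 Ser10-positive cells, counted against Hoechst-stained nuclei by high-content imaging, marked mitotic breakthrough. Compounds (0.005–20 μM, 0.5% DMSO) were co-dosed with 0.1 μg/ml nocodazole onto HeLa cells for 24 h at 37 °C. Curves were fitted with a four-parameter Hill equation.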

[2] = tested on: human cervical tumor cell line HeLa (ATCC CCL-2); assay: SAC-Formation - Paclitaxel-Induced Assay; type: cell-based; settings: Homo sapiens, HeLa, 24 h, HeLa cells, paclitaxel 0.05 μM, test range 0.005 μM-20 μM, read-out: IC50 [mol/l] SAC-Formation - Paclitaxel-Induced Assay
Method in brief: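 Read-out is high-content imaging of anti-phospho-H3 Ser10 (mitosis) and Hoechst 33342 (DNA, cell number), with decreased mitotic fraction marking checkpoint breakthrough. Compounds (0.005–20 μM) and 0.05 μM paclitaxel co-added to overnight-plated HeLa for 24 h at 37° C; four-parameter Hill fit.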

Cc1nsc(Nc2cnc(C(F)(F)F)cn2)c1C(=O)Nc1ccc(OCCCO)nc1 [Example 279, N-[6-(3-hydroxypropoxy)pyridin-3-yl]-3-methyl-5-{[5-(trifluoromethyl)pyrazin-2-yl]amino}-1,2-thiazole-4-carboxamide]
IC50 [1]: 120 nM
IC50 [2]: 720 nM

Cc1nsc(Nc2cncc(C(F)(F)F)n2)c1C(=O)Nc1ccc(C(=O)NC2CN(CC(F)(F)F)C2)cc1 [Example 280, 3-methyl-N-(4-{[1-(2,2,2-trifluoroethyl)azetidin-3-yl]carbamoyl}phenyl)-5-{[6-(trifluoromethyl)pyrazin-2-yl]amino}-1,2-thiazole-4-carboxamide]
IC50 [1]: 670 nM
IC50 [2]: 3700 nM

Cc1nsc(Nc2cnc3ccccc3n2)c1C(=O)Nc1cccc(NS(=O)(=O)C2CCN(CC(F)(F)F)CC2)c1 [Example 281, 3-methyl-5-(quinoxalin-2-ylamino)-N-[3-({[1-(2,2,2-trifluoroethyl)piperidin-4-yl]sulfonyl}amino)phenyl]-1,2-thiazole-4-carboxamide]
IC50 [1]: 1200 nM
IC50 [2]: 3900 nM

Cc1nsc(Nc2cnc3ccccc3n2)c1C(=O)Nc1cccc(NS(=O)(=O)C2CCN(CC(F)F)CC2)c1 [Example 282, N-[3-({[1-(2,2-difluoroethyl)piperidin-4-yl]sulfonyl}amino)phenyl]-3-methyl-5-(quinoxalin-2-ylamino)-1,2-thiazole-4-carboxamide]
IC50 [1]: 6700 nM
IC50 [2]: 3500 nM

Cc1nsc(Nc2cnc3ccccc3n2)c1C(=O)Nc1cccc(NS(=O)(=O)C2CCN(CCC(F)(F)F)CC2)c1 [Example 283, 3-methyl-5-(quinoxalin-2-ylamino)-N-[3-({[1-(3,3,3-trifluoropropyl)piperidin-4-yl]sulfonyl}amino)phenyl]-1,2-thiazole-4-carboxamide]
IC50 [1]: 3300 nM
IC50 [2]: 7100 nM

Cc1nsc(Nc2cnc(C(F)(F)F)cn2)c1C(=O)Nc1cccc(NC(=O)OC(C)(C)C)c1 [Example 284, 3-tert-butyl (3-{[(3-methyl-5-{[5-(trifluoromethyl)pyrazin-2-yl]amino}-1,2-thiazol-4-yl)carbonyl]amino}phenyl)carbamate]
IC50 [1]: 76 nM
IC50 [2]: 120 nM

Cc1nsc(Nc2cnc3ccccc3n2)c1C(=O)Nc1cccc(NS(=O)(=O)C2CN(CC(F)(F)F)C2)c1 [Example 285, 3-methyl-5-(quinoxalin-2-ylamino)-N-[3-({[1-(2,2,2-trifluoroethyl)azetidin-3-yl]sulfonyl}amino)phenyl]-1,2-thiazole-4-carboxamide]
IC50 [1]: 2200 nM
IC50 [2]: 6100 nM

Cc1nsc(Nc2cnc3ccccc3n2)c1C(=O)Nc1cccc(NS(=O)(=O)C2CN(CC(F)F)C2)c1 [Example 286, N-[3-({[1-(2,2-difluoroethyl)azetidin-3-yl]sulfonyl}amino)phenyl]-3-methyl-5-(quinoxalin-2-ylamino)-1,2-thiazole-4-carboxamide]
IC50 [1]: 4100 nM
IC50 [2]: 6500 nM

Cc1nsc(Nc2cnc3ccccc3n2)c1C(=O)Nc1cccc(NS(=O)(=O)C2CN(CCF)C2)c1 [Example 287, N-[3-({[1-(2-fluoroethyl)azetidin-3-yl]sulfonyl}amino)phenyl]-3-methyl-5-(quinoxalin-2-ylamino)-1,2-thiazole-4-carboxamide]
IC50 [1]: 7200 nM
IC50 [2]: 8200 nM

Cc1nsc(Nc2cnc3ccccc3n2)c1C(=O)Nc1cccc(NS(=O)(=O)C2CN(CCC(F)(F)F)C2)c1 [Example 288, 3-methyl-5-(quinoxalin-2-ylamino)-N-[3-({[1-(3,3,3-trifluoropropyl)azetidin-3-yl]sulfonyl}amino)phenyl]-1,2-thiazole-4-carboxamide]
IC50 [1]: 7700 nM
IC50 [2]: 6100 nM

Cc1nsc(Nc2cnc3ccccc3n2)c1C(=O)Nc1cccc(NS(=O)(=O)C2CCN(CC(F)(F)F)C2)c1 (stereo not shown) [Example 289, 3-methyl-5-(quinoxalin-2-ylamino)-N-[3-({[1-(2,2,2-trifluoroethyl)pyrrolidin-3-yl]sulfonyl}amino)phenyl]-1,2-thiazole-4-carboxamide]
IC50 [1]: 1900 nM
IC50 [2]: 3300 nM

Cc1nsc(Nc2cnc3ccccc3n2)c1C(=O)Nc1cccc(NS(=O)(=O)C2CCN(C(=O)OC(C)(C)C)C2)c1 (stereo not shown) [Example 290, tert-butyl 3-{[3-({[3-methyl-5-(quinoxalin-2-ylamino)-1,2-thiazol-4-yl]carbonyl}amino)phenyl]sulfamoyl} pyrrolidine-1-carboxylate]
IC50 [1]: 2000 nM
IC50 [2]: 3600 nM

Cc1nsc(Nc2cnc3ccccc3n2)c1C(=O)Nc1cccc(NS(=O)(=O)C2CCCN(C(=O)OCc3ccccc3)C2)c1 (stereo not shown) [Example 291, benzyl 3-{[3-({[3-methyl-5-(quinoxalin-2-ylamino)-1,2-thiazol-4-yl]carbonyl}amino)phenyl]sulfamoyl} piperidine-1-carboxylate]
IC50 [1]: 1400 nM
IC50 [2]: 4800 nM

Cc1nsc(Nc2cnc(C(F)(F)F)cn2)c1C(=O)Nc1ccc(OCCCNCC(F)(F)F)nc1 [Example 292, 3-methyl-N-(6-{3-[(2,2,2-trifluoroethyl)amino]propoxy}pyridin-3-yl)-5-{[5-(trifluoromethyl)pyrazin-2-yl]amino}-1,2-thiazole-4-carboxamide]
IC50 [1]: 980 nM
IC50 [2]: 420 nM

Cc1nsc(Nc2cnc(C(F)(F)F)cn2)c1C(=O)Nc1ccc(OCCCNCC(F)F)nc1 [Example 293, N-(6-{3-[(2,2-difluoroethyl)amino]propoxy}pyridin-3-yl)-3-methyl-5-{[5-(trifluoromethyl)pyrazin-2-yl]amino}-1,2-thiazole-4-carboxamide]
IC50 [1]: 3100 nM
IC50 [2]: 4000 nM

Cc1nsc(Nc2cnc(C(F)(F)F)cn2)c1C(=O)Nc1ccc(OCCCNCCC(F)(F)F)nc1 [Example 294, 3-methyl-5-{[5-(trifluoromethyl)pyrazin-2-yl]amino}-N-(6-{3-[(3,3,3-trifluoropropyl)amino]propoxy}pyridin-3-yl)-1,2-thiazole-4-carboxamide]
IC50 [1]: 450 nM
IC50 [2]: 560 nM

Cc1nsc(Nc2cnc(C(F)(F)F)cn2)c1C(=O)Nc1ccc(OC2CCN(CCF)C2)nc1 (stereo not shown) [Example 295, N-(6-{[1-(2-fluoroethyl)pyrrolidin-3-yl]oxy}pyridin-3-yl)-3-methyl-5-{[5-(trifluoromethyl)pyrazin-2-yl]amino}-1,2-thiazole-4-carboxamide]
IC50 [1]: 590 nM
IC50 [2]: 1200 nM

Cc1nsc(Nc2cnc(C(F)(F)F)cn2)c1C(=O)Nc1ccc(OC2CCN(CC(F)F)C2)nc1 (stereo not shown) [Example 296, N-(6-{[1-(2,2-difluoroethyl)pyrrolidin-3-yl]oxy}pyridin-3-yl)-3-methyl-5-{[5-(trifluoromethyl)pyrazin-2-yl]amino}-1,2-thiazole-4-carboxamide]
IC50 [1]: 180 nM
IC50 [2]: 300 nM

Cc1nsc(Nc2cnc(C(F)(F)F)cn2)c1C(=O)Nc1ccc(OC2CCN(CC(F)(F)F)C2)nc1 (stereo not shown) [Example 297, 3-methyl-N-(6-{[1-(2,2,2-trifluoroethyl)pyrrolidin-3-yl]oxy}pyridin-3-yl)-5-{[5-(trifluoromethyl)pyrazin-2-yl]amino}-1,2-thiazole-4-carboxamide]
IC50 [1]: 80 nM
IC50 [2]: 56 nM

Cc1nsc(Nc2cnc(C(F)(F)F)cn2)c1C(=O)Nc1ccc(OC2CCN(CCC(F)(F)F)C2)nc1 (stereo not shown) [Example 298, 3-methyl-5-{[5-(trifluoromethyl)pyrazin-2-yl]amino}-N-(6-{[1-(3,3,3-trifluoropropyl)pyrrolidin-3-yl]oxy}pyridin-3-yl)-1,2-thiazole-4-carboxamide]
IC50 [1]: 80 nM
IC50 [2]: 740 nM
